# Measurements: patent US10231939B2, “Hydroxytyrosol and oleuropein compositions for induction of DNA damage, cell death and LSD1 inhibition” (priority 2012, dated 2019)
# Several values for one entry are separate records, joined by “and”; a condition that tells them apart may be missing. Equal values may be shown once.
# Columns and labels:
# LSD1 = LSD1 (Homo sapiens, UniProt O60341); assay: LSD1 Demethylase Profiling (HRP/Amplex Red); assay type: biochemical; settings: for LSD1 inhibition (in words): 10-dose, 3-fold serial dilution starting at 100 μM, 10 μM Histone H3 (1-21) K4me2 peptide
# Description: (§1) Formulation 2 (4× diluted) was tested against positive control tranylcypromine for LSD1 inhibition activity. […] The production of FAD-dependent H2O2 as a result of demethylase activity of LSD1 is measured by coupling with HRP and Amplex Red and fluorescence was measured using the EnVision plate reader at Ex/Em=535/590 nm. 10 μM Histone H3 (1-21) K4me2 peptide was used as the standard substrate. Data was represented at the percentage of LSD1 enzymatic activity inhibition relative to DMSO controls and a curve fit for the control compound.
# as §1, with “Hydroxytyrosol” for “Formulation 2 (4× diluted)”
# human keratinocytes = assay: mRNA-Sequencing, human keratinocytes; assay type: cell-based
# Description: Human chronic myelogenous leukemia K562 cells (ATCC No. CCL-243) were obtained from the American Type Culture Collection (Manassas, Va., USA) and maintained in complete-[…] Park Memorial Institute (RPMI) 1640 medium supplemented with 20 mmol/L HEPES (pH 7.4; GIBCO-Invitrogen, Carlsbad, Calif., USA), 10% (v/v) fetal bovine serum (FBS), 2 mmol/L L-glutamine (GIBCO-Invitrogen), and 80 units gentamicin (GIBCO-Invitrogen). Cells were cultured in suspension in a humidified atmosphere of 5% (v/v) CO2 at 37° C. and were maintained in exponential growth phase. For maintenance, cells were passaged twice per week and seeded at ratios 1:10. Human neonatal foreskin keratinocytes transfected with the human papilloma virus (HPV) were grown as monolayers in keratinocyte—Serum Free Medium (SFM) medium (GIBCO-Invitrogen) supplemented with L-glutamine, human epidermal growth factor (EGF), and bovine pituitary extract (BPE) at 37° C., 5% (v/v) CO2. Cells were passaged by trypsinisation and seeded at ratio of 1:3. Cells were seeded at densities of 1×10^6/mL in culture flasks (Nalge Nunc, New York, USA) and treated with hydroxytyrosol (0, 20, 100 μM), for 24 hours at 37° C., 5% (v/v) CO2. mRNA sequencing was performed by TRIZOL extraction and library preparation using Illumina kits according to manufacturer's protocols. Next generation sequencing (NGS) was performed at a depth of approximately 20 million mapped reads per sample to determine the effect of hydroxytyrosol on genome-wide gene expression, in human erythroleukemic K562 cells and human keratinocytes (24 hr treatment, 20 and 100 μM). Reads generated by the Illumina base calling software V1.6 were aligned with Burrows Wheeler Aligner to the human transcriptome database curated by RefSeq (Hg18 build). Raw counts were normalized to adjust for slightly differing data volume across lanes giving the widely used score reads per transcript per million reads. These scores were used to determine relative fold changes and the conventionally used ±1.5 fold-change, which is discernible with qRT-PCR, was defined a significant change in expression. The online program MetaCore (GeneGo Inc. St. Joseph, MI, USA) was used for pathway analysis.
# [1] = Cell viability (Cell-Titer Blue), PBMC; assay type: cell-based; settings: human, PBMC (peripheral blood mononuclear cells), hydroxytyrosol 20 or 100 μM
# Description: Cells were seeded at densities of 7,500 cells/in black flat bottom 96-well plates (Nalge Nunc, Penfield, N.Y., USA) and treated with a dose response of hydroxytyrosol (0-200 μM), oleuropein (0-800 μM), tyrosol (0-1000 μM) and homovanilic acid (0-1000 μM) for 24 hours at 37° C., 5% (v/v) CO2. Cell viability was determined after 24 hour exposure to hydroxytyrosol and measured using the Cell-Titer Blue® Assay kit (Promega, Madison, Wis., USA) according to the manufacturer's instructions. Cell-Titer Blue reagent was added to each well and incubated for 4 hours at 37° C., 5% CO2, before reading fluorescence intensity (550 nm excitation; 615 nm emission) using the Perkin Elmer Victor3 (Perkin Elmer, MA, USA) multi-label plate reader.
# [2] = hydroxytyrosol 24 hr (20 μM per FIG. 18C)
compound,measurement,setting,value
"OCCc1ccc(O)c(O)c1 [HT, 4-(2-hydroxyethyl)-1,2-benzenediol]",LSD1 inhibition (in words),LSD1; listed as Hydroxytyrosol,Hydroxytyrosol is a potent
same,LSD1 inhibition (in words),LSD1; listed as hydroxytyrosol,potent inhibitor of LSD1
same,LSD1 inhibition compared with tranylcypromine,LSD1; positive control tranylcypromine,more effective LSD1 inhibitor against tranylcypromine
same,heme oxygenase 1 (HMOX-1) up-regulated,human keratinocytes; hydroxytyrosol,15 fold
same,number of genes whose expression is regulated,human keratinocytes; hydroxytyrosol,~3 thousand genes
same,ELP3 expression Fold Change (UP),human keratinocytes; [2],1.51 fold
same,HDAC5 expression Fold Change (UP),human keratinocytes; [2],1.81 fold and 1.70 fold
same,HDAC9 expression Fold Change (UP),human keratinocytes; [2],3.00 fold
same,HDAC11 expression Fold Change (UP),human keratinocytes; [2],1.65 fold and 1.54 fold
same,JHDM1D expression Fold Change (UP),human keratinocytes; [2],1.66 fold
same,KDM2B expression Fold Change (UP),human keratinocytes; [2],1.64 fold and 1.55 fold
same,KDM3A expression Fold Change (UP),human keratinocytes; [2],1.60 fold
same,KDM5D expression Fold Change (DOWN),human keratinocytes; [2],2.00 fold
same,MLL3 expression Fold Change (DOWN),human keratinocytes; [2],2.00 fold
same,NCOA1 expression Fold Change (UP),human keratinocytes; [2],1.51 fold
same,PRDM1 expression Fold Change (UP),human keratinocytes; [2],2.67 fold and 4.00 fold
same,PRDM4 expression Fold Change (UP),human keratinocytes; [2],1.56 fold
same,PRDM8 expression Fold Change (UP),human keratinocytes; [2],1.85 fold and 1.64 fold
same,PRDM11 expression Fold Change (UP),human keratinocytes; [2],3.00 fold
same,PRDM12 expression Fold Change (DOWN),human keratinocytes; [2],1.50 fold
same,PRMT8 expression Fold Change (DOWN),human keratinocytes; [2],2.00 fold
same,SETBP1 expression Fold Change (DOWN),human keratinocytes; [2],2.00 fold
same,SETDB2 expression Fold Change (UP),human keratinocytes; [2],1.75 fold
same,SETMAR expression Fold Change (UP),human keratinocytes; [2],1.53 fold
same,SMYD3 expression Fold Change (DOWN),human keratinocytes; [2],1.55 fold
same,viability at 24 h,[1],100%
